Target: Protein-arginine deiminase type-4 (Homo sapiens) (UniProt Q9UM07)
Test: human PAD4 inhibitor potency, dose response, biochemical, fluorescence readout (AID 492970)
Settings: recombinant PAD4, BAEE citrulline colorimetric readout

Protein-arginine deiminase type-4 (Homo sapiens), sequence (Q9UM07 whole entry, looked up): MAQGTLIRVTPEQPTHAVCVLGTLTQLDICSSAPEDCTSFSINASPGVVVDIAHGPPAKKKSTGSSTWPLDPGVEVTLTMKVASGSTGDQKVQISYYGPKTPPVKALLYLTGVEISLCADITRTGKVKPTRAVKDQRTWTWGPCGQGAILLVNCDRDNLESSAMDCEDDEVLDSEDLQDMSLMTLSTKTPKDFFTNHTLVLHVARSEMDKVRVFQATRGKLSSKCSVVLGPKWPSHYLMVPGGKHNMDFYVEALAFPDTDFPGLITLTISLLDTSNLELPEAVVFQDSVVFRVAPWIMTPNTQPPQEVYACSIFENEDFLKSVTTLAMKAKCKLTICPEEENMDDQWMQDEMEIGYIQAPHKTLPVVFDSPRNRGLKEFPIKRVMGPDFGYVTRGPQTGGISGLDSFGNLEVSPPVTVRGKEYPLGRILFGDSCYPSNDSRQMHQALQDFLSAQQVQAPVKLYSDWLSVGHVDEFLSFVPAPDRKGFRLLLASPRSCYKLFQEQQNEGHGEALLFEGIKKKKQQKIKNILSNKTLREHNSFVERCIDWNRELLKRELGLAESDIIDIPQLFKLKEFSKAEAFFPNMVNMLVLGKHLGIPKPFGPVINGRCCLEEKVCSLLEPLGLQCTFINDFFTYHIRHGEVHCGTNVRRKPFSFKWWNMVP

## COC1=C(N)C(=O)c2nc(-c3nc(C(=O)O)c(C)c(-c4ccc(OC)c(OC)c4O)c3N)ccc2C1=O
  IC50: 2500 nM

Source: PubChem BioAssay AID492970 (The Scripps Research Institute Molecular Screening Center, 2010)
